Experimental data published in patent US20250295665A1, “SELECTIVE K-RAS INHIBITORS FOR THE ENHANCEMENT OF ADOPTIVE IMMUNOTHERAPIES” (H. LEE MOFFITT CANCER CENTER AND RESEARCH INSTITUTE INC., priority 2022, published 2025).

Key:
CT26-G12C tumors = assay: Single cell RNA sequencing of CT26-G12C tumors; assay type: in vivo, mouse
From the text: UMAP projections were generated from scRNA-seq data and used for visualization. Cell type clusters detected in DAPI-sorted cells from CT26-G12C SC. Tumors (FIG. 4A), or from CT26-G12C in vitro cell line (FIG. 4D) treated with the indicated conditions are shown, with cell % percentage histogram and gene-level expression heat map calculated for each cluster.

HCC44-PSCA = HCC44-PSCA SC tumors in NSG mice with IV CAR-T transfer (human T cell ACT mouse model); assay type: in vivo
Description: Inoculated in NSG mice and received IV CART transfer with AMG-510 Orla gavage (30 mg/Kg/Mouse for 6 days then sacrificed and tumors were collected and stained with T cells markers, or for 20 days with IP anti-human PD1 Ab (twice a week) for Tumor growth curve.

[1] = system: CT26-G12C colon cancer cells; assay type: in vivo, mouse
Description: CT26-G12C colon cancer cells were SC. Implanted in BALB/C mice, and left to develop SC. Tumors for 20 days, then treated with oral gavage of 3 mg/kg/mouse TRA or 30 mg/kg/mouse AMG-510 for 6 days alone or for 20 days with anti-PD1 Ab (IP 200 μg/mouse twice a week). Tumor size was measured till mice being sacrificed. tumors were collected and stained for T cell, and Myeloid cell markers mouse antibodies (anti-CD45, anti-CD8, anti-CD4, anti-CD3, anti-CD69, anti-PD1, anti-CD25, anti-CD62L, anti-CD44, anti-F4/80, anti-CD11C, anti-CD11b, anti-Ly6G, ant-Ly6C and Live/Dead near IR viability dye). CM (central memory): CD62L+CD44+, EM (Effector memory) CD62L-CD44+. Mice survival was assessed using Kaplan-Meier survival test.

## C=CC(=O)N1CCN(c2nc(=O)n(-c3c(C)ccnc3C(C)C)c3nc(-c4c(O)cccc4F)c(F)cc23)[C@@H](C)C1 (atropisomer, axis not shown) [Sotorasib, 6-fluoro-7-(2-fluoro-6-hydroxyphenyl)-(1/W)-1-[4-methyl-2-(propan-2-yl)pyridin-3-yl]-4-[(2S)-2-methyl-4-(prop-2-enoyl)piperazin-1-yl]pyrido[2,3-cf]pyrimidin-2 (1/-/)-one]
CT26-G12C tumors; CT26-G12C SC tumors and in vitro cell line
  immuno-active and growth-active tumor clusters (scRNA-seq, cell % per cluster): enriches the immuno-active and diminishes growth-active tumor clusters
CT26-G12C tumors; Sotorasib-treated CT26-G12C tumors
  tumor clusters by top upregulated pathways (scRNA-seq): enrichment of tumor clusters with TNFα and IFNγ as top upregulated pathways
HCC44-PSCA; combined with CAR-T adoptive cell transfer and anti-PD1 treatment
  anti-tumor effect of CAR-T adoptive cell transfer and anti-PD1: enhanced their anti-tumor effect
HCC44-PSCA; human T cell adoptive therapy (ACT) mouse model, 30 mg/Kg/Mouse oral gavage, 6 days
  expansion of tumor infiltrating lymphocytes (TILs): significantly promoted the expansion of tumor infiltrating lymphocytes
[1]; CT26-G12C heterotrophic mouse model, 30 mg/kg/mouse oral gavage, 6 days
  expansion of tumor infiltrating lymphocytes (TILs): significantly promoted the expansion of tumor infiltrating lymphocytes
[1]; combined with anti-PD-1, CT26-G12C model
  mouse survival (Kaplan-Meier): prolonging mouse survival
[1]; mouse tumor models
  tumor microenvironment / T cell effector phenotype: strikingly augmented T cell effector phenotype
[1]; mouse, in vivo, ip
  control of CT26-G12C tumor growth: synergized with anti-PD-1 in controlling CT26-G12C tumor growth
